Test results reported in patent US5607967A, “Treatment of alzheimer's disease with 5-(tetradecyloxy)-2-furan carboxylic acid” (Merck & Co., Inc., priority 1994, dated 1997).

Key:
PC12 cells = experiment: Neurite differentiation of PC12 cells; assay type: cell-based; details: NGF alone (100 ng/mL), 4 days
Procedure: To further study the influence of TOFA on the nervous system, we tested the effect of TOFA on the differentiation of PC12 cells. PC12 cells were plated at a density of approximately 100-200/mm^2 on collagen coated plates or dishes in RPMI medium supplemented with 10% horse serum, 5% fetal calf serum, […] streptomycin, 50 U/mL penicillin in a water saturated atmosphere of 95% air and 5% CO2, at 37° C. overnight. Medium was replaced with fresh RPMI containing 1.5% serum, 100 ng/mL NGF and the indicated concentration of TOFA or an equivalent volume of vehicle (DMSO) giving a final concentration of 0.1% DMSO.
At different time points during the treatment, cells were photographed or fixed with 10% formalin. Morphology was examined after four days of treatment with TOFA or vehicle (DMSO). The number of cells beating neurites and average length of neurites were determined with the aid of the Bioquant imaging system. […] However, as depicted in Table 6 below, NGF alone induced a 15% increase in the number of cells bearing neurites and these outgrowths reached a mean length of 20 μm. Treatment with NGF and TOFA increased the percentage of cells beating neurites to 78%. Maximal neurite generation is observed at a concentration of 10 μM TOFA.
Cells were treated with vehicle (0.1% DMSO) or various concentrations of TOFA in the presence of 100 ng/mL NGF for 4 days, and then fixed with 10% formalin. At least eighty cells from eight wells were analyzed in each group. The results are shown as the mean ±SEM. ^a p<0.01, versus vehicle by Dunnetts test.

GR/NER chimeric receptor [1] = experiment: Ligand dependent transcription assay, GR/NER chimeric receptor with MMTV-luciferase reporter; assay type: cell-based, human
Procedure: To search for putative ligands for the NER receptor, the chimeric receptor GR/NER was prepared. […] Chimeric receptors were prepared in which the amino terminal portion of the mouse glucocorticoid receptor (mGR) that includes the DNA binding domain was fused to the putative ligand binding domains of the nuclear receptor NER to form the respective chimeric receptor GR/NER. The cDNA sequences coding for amino acid residues Arg^155 and Glu^156 of the hNER receptor (Shinar et al., NER, a new member of a gene family encoding the steroid hormone nuclear receptor; GENE (in press) were convened to the Xho I restriction site, which site was later used for the ligation to the GR cDNA sequences that coded for the DNA binding domain. Thus, the amino acid residues Arg^155 and Glu^156 of the NER receptor were convened to amino acid residues Ser^155 and His^156.
The chimera was employed in ligand dependent transactivation assays with the reporter gene MMTV-luciferase, in which the luciferase cDNA is transcribed under the control of the MMTV promoter.
(§1) Similar hybrid receptors GR/NER, GR/NUC and GR/PPAR, in identical expression plasmid backgrounds were prepared essentially as described for the construction of the GR/mPPAR and GR/NUC chimeric receptors in Schmidt et al., "Identification of a new member of the steroid hormone receptor superfamily that is activated by a peroxisome proliferator and fatty acids," Mol. Endocrinol., 6(10):1634-41, 1992, and in Boie et al., "Enantioselective activation of the peroxisome proliferator-activated receptor", J. Biol. Chem. 268(8):5530-4, 1993.
(§2) Briefly, the amino terminal portion of the mouse glucocorticoid receptor (mGR), that includes the DNA binding domain was fused to the putative ligand binding domains of the nuclear receptor NER, hNUC-I (Schmidt et al., 1992), mPPAR (Issenmann and Green, 1990) to form the respective chimeric receptors GR/NER, GR/NUC and GR/PPAR. The GR/NER chimeric receptor was constructed as described for the GR/NUC and GR/PPAR hybrid receptors (Schmidt et al., 1992; Boie et al). The cDNA sequences coding for amino acids Arg^155 and Glu^156 of the NER receptor were converted to the Xho I restriction site, that was later used for the ligation to the GR cDNA sequences that coded for the DNA binding domain. Thus, converting amino acid residues Arg^155 and Glu^156 of NER receptor to amino acid residues Ser^155 and His^156.

GR/NUC chimeric receptor = molecular target: T1, GR/NUC chimeric receptor (Homo sapiens, UniProt Q03181); experiment: Ligand dependent transcription assay, GR/NUC chimeric receptor with MMTV-luciferase reporter; assay type: cell-based
T1 construct: transfected cells, MMTV-luciferase
T1 sequence (Q03181 1-441): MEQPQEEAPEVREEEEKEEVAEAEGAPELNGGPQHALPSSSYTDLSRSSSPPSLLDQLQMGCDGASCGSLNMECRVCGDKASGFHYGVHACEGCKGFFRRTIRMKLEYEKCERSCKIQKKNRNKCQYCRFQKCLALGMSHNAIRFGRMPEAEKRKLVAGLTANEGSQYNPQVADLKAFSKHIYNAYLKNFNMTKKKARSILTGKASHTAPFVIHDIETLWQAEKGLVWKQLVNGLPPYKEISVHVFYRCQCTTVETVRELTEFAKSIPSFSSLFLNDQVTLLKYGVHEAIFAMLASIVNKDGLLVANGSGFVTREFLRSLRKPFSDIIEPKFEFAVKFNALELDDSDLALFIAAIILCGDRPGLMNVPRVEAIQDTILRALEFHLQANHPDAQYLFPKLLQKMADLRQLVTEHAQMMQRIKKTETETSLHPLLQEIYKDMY
T1 sequence (P06537 1-792 partner): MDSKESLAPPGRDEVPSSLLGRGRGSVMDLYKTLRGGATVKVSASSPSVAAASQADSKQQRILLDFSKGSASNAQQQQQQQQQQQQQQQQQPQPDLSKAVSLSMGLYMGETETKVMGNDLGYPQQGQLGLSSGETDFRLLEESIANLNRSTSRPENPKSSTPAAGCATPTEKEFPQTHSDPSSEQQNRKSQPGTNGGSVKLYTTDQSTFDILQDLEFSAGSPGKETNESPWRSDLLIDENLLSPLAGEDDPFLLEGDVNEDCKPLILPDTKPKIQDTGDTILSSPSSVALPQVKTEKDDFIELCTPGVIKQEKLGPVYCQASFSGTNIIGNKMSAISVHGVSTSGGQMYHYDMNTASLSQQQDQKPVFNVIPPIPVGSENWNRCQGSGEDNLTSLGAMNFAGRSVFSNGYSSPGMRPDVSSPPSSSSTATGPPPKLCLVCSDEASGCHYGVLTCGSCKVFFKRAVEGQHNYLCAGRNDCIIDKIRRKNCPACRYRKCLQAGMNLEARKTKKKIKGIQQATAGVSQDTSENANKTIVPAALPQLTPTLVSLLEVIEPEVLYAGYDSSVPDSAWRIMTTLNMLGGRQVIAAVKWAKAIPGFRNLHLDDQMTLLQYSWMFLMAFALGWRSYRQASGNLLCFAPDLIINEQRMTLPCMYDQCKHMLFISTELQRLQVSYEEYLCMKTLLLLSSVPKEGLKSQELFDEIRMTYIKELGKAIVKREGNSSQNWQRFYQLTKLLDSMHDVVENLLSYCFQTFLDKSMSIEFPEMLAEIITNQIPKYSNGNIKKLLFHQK
Procedure: as §1, §2

[2] = molecular target: T2, GR/PPAR chimeric receptor (Mus musculus, UniProt P23204); experiment: Ligand dependent transcription assay, GR/PPAR chimeric receptor with MMTV-luciferase reporter; assay type: cell-based
T2 construct: COS cells, MMTV-luciferase
T2 sequence (P23204 1-468): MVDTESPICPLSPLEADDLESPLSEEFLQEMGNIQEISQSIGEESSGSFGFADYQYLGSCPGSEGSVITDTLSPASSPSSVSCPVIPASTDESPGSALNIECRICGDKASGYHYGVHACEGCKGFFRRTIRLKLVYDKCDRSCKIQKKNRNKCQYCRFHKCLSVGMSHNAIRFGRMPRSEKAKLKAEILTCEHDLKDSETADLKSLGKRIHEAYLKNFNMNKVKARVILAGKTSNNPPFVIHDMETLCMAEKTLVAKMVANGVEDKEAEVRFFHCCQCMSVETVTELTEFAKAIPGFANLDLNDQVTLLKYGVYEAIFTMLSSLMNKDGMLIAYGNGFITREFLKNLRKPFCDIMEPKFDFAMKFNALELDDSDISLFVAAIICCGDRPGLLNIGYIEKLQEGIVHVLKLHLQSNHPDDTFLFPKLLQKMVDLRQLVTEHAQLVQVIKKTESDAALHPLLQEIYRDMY
T2 sequence (P06537 1-792 partner): T1 sequence (P06537 1-792 partner)
Procedure: as §1, §2
The ligand transcription assay mediated by GR/PPAR in COS cells was performed as described in Example 4. The cells were treated with TOFA and Cerulenin at 0.1, 1, 10 and 100 μM.

[3] = molecular target: T2, GR/PPAR chimeric receptor; experiment: as above; assay type: cell-based; details: read-out: Fold of stimulation GR/PPAR
human NUCI receptor = molecular target: T3, human NUCI receptor (Homo sapiens, UniProt Q03181); experiment: Transcription assay, native NUC-I receptor co-transfected with MMTV-luciferase reporter; details: read-out: Fold of stimulation NUC-I
T3 sequence (Q03181 1-441): T1 sequence (Q03181 1-441)
Procedure: (§3) The reporter gene was the plasmid pJA358 in which the expression of firefly luciferase is regulated by two tandem repeats of the glucocorticoid hormone response element (GRE) linked to the MMTV promoter (Boie et al., 1993).
(§4) Transient transfection of COS and CV1 cells was performed as described (Schmidt 1992). Cells were plated (1.5×10^5 in 1 mL) into 12 well dishes in phenol red-free medium supplemented with activated charcoal treated fetal calf serum. The next day 0.12 mL of DNA 10 μg/ml (5 μg receptor DNA and 5 μg reporter plasmid), as a calcium phosphate precipitate, was added to the cells. Ligands were added to the cells 30 minutes after transfection. The next day (18 hours), the cells were washed and fresh ligands added. Twenty-four hours later, cell extracts were prepared and assayed for luciferase enzyme activity using the luciferase assay system (Promega Madison, Wis.). Each transfection was performed in triplicate and the luciferase activity of each sample measured in duplicate using the AutoClinilumat (Berthold Nashua, N.H.).
(§5) The transfected cells were treated with TOFA at 2 μM, 10 μM, 20 μM, and 50 μM and oleic acid at 50 μM, and 300 μM.

[4] = molecular target: T4, native mouse glucocorticoid receptor (Mus musculus, UniProt P06537); experiment: Transcription assay, native glucocorticoid receptor co-transfected with MMTV-luciferase reporter; details: read-out: Fold of stimulation GR
T4 sequence (P06537 1-792): T1 sequence (P06537 1-792 partner)
Procedure: as §3, §4, §5

GR/NER chimeric receptor [5] = experiment: Activation of GR/NER in CV1 cells (luciferase); details: for Fold of stimulation GR/NER: no TOFA
Procedure: The ligand dependent transcription assays were performed as described in Example 4, using CV1 cells in place of COS cells. The transfected CV1 cells were treated with dopamine, TOFA, or with a combination of TOFA and dopamine at the indicated concentrations and tested for luciferase activity.
CV1 cells were co-transfected with the MMTV-Luciferase reporter gene (pJA358) and the GR/NER chimeric receptor as described in Example 4. The cells were treated with increasing amount of the dopamine D1 receptor antagonist SCH 23390 with or without 50 μM […] dopamine.

GR/NER chimeric receptor [6] = experiment: Activation of GR/NER in COS-7 cells (luciferase); details: for Fold of stimulation GR/NER: no TOFA
Procedure: The ligand dependent transcription assays were performed as described in Example 4. The transfected COS cells were treated with dopamine, TOFA, or with the combination of TOFA and dopamine at the indicated concentrations and tested for luciferase activity.

[7] = tested on: Dopamine D2 receptor antagonist (Haloperidol) induced catalepsy; experiment: Haloperidol induced catalepsy (Bar method); assay type: in vivo, rat; details: carrier pretreatment, 24 h later 0.1 mg/kg Haloperidol

NGF: nerve growth factor
Mean length of neurite outgrowths (PC12 cells): 20 μm
Number of cells bearing neurites (PC12 cells): 15%

CCCCCCCC/C=C\CCCCCCCC(=O)O [Oleic Acid, oleic acid, reference compound]
Expression mediated by GR/NER (GR/NER chimeric receptor [1]): not by the GR/NER chimera
Fold of stimulation GR/NER (GR/NER chimeric receptor [1]; 50 μM): 0.90 ± 0.13 fold
Fold of stimulation GR/NER (GR/NER chimeric receptor [1]; 300 μM): 0.73 ± 0.21 fold
Expression mediated by GR/NUC (GR/NUC chimeric receptor): activated expression
fold induction at 150 µM (GR/NUC chimeric receptor; read-out: Fold of stimulation GR/NUC): 3.42 ± 0.28
Expression mediated by GR/PPAR [2]: activated expression
fold induction at 50 µM [3]: 2.87 ± 0.2
fold induction at 300 µM [3]: 14.69 ± 0.06
fold induction at 150 µM (human NUCI receptor): 0.55 ± 0.08
fold induction at 150 µM [4]: 0.44 ± 0.17

NCCc1ccc(O)c(O)c1 [Dopamine, dopamine]
Effect on transcription mediated by GR/NER in CV1 cells (GR/NER chimeric receptor [5]): suppressed the transcription
Fold of stimulation GR/NER (GR/NER chimeric receptor [5]; dopamine 0.1 μM): 1.28 ± 0.05 fold
Fold of stimulation GR/NER (GR/NER chimeric receptor [5]; dopamine 1.0 μM): 0.88 ± 0.11 fold
Fold of stimulation GR/NER (GR/NER chimeric receptor [5]; dopamine 10 μM): 0.55 ± 0.06 fold
Fold of stimulation GR/NER (GR/NER chimeric receptor [5]; dopamine 100 μM): 0.44 ± 0.14 fold
Fold of stimulation GR/NER (GR/NER chimeric receptor [6]; dopamine 0.1 μM, 1440 min): 1.10 ± 0.07 fold
Fold of stimulation GR/NER (GR/NER chimeric receptor [6]; dopamine 1.0 μM): 0.87 ± 0.06 fold
Fold of stimulation GR/NER (GR/NER chimeric receptor [6]; dopamine 10 μM, 1440 min): 0.84 ± 0.08 fold
Fold of stimulation GR/NER (GR/NER chimeric receptor [6]; dopamine 100 μM, 1440 min): 0.87 ± 0.11 fold
Suppression of GR/NER mediated transcription in COS-7 cells (GR/NER chimeric receptor [6]; no significant dopamine D1 receptor expression): suppression was not seen

O=C(CCCN1CCC(O)(c2ccc(Cl)cc2)CC1)c1ccc(F)cc1 [Haloperidol, haloperidol, reference compound]
Catalepsy Duration [7]: 20.3 ± 6.7 s

Cc1cccc(Nc2cc(Cl)nc(SCC(=O)O)n2)c1C [WY14643, reference compound]
Expression mediated by GR/NER (GR/NER chimeric receptor [1]): not by the GR/NER chimera
Expression mediated by GR/PPAR [2]: activated expression
